According to the NIST ThermoML archive (doi:10.1016/j.jct.2013.02.020):
± gives the expanded uncertainty stated by the source.

How the values were obtained:
[1] = 298.15 K; for surface tension liquid-gas: Wilhelmy plate method; for mass density: 100 kPa, Liquid, Vibrating tube method
[2] = refractive index (Na D-line) (dimensionless); details: 298.15 K; 100 kPa; Liquid; Standard Abbe refractometry

| SMILES | surface tension liquid-gas [1] | mass density [1] | refractive index [2] |
| --- | --- | --- | --- |
| CC(=O)[O-].CCn1cc[n+](C)c1 [1-ethyl-3-methylimidazolium acetate] | 43.5 ± 0.2 mN/m | 1097.37 ± 2.2 kg/m3 | 1.5012 ± 0.0005 |
| CCOS(=O)(=O)[O-].CCn1cc[n+](C)c1 [1-ethyl-3-methylimidazolium ethyl sulfate] | 48.4 ± 0.2 mN/m | 1234.53 ± 2.2 kg/m3 | 1.4771 ± 0.0005 |
| CCn1cc[n+](C)c1.CS(=O)(=O)[O-] [1-ethyl-3-methylimidazolium methanesulfonate] | 51.2 ± 0.3 mN/m | 1242.52 ± 2.2 kg/m3 | 1.4962 ± 0.0005 |
| c1ccncc1 [pyridine] | 37.5 ± 0.4 mN/m | 978.25 ± 2.3 kg/m3 | 1.5072 ± 0.0006 |
| c1ccsc1 [thiophene] | 31.7 ± 0.3 mN/m | 1058.44 ± 2.4 kg/m3 | 1.5271 ± 0.0006 |
